Test results as given in patent publication US9962452B2, “Soluble complexes of drug analogs and albumin” (Zhuhai Beihai Biotech Co., Ltd., priority 2013, dated 2018).

Biological target: Human serum albumin (HSA) (Homo sapiens, UniProt P02768)
Assay: HSA-Binding Assay (equilibrium dialysis, LC-MS/MS)
Details: isolated protein
Experimental: Equilibrium dialysis was performed in a 24-well BD Gentest Serum Binding System (BD Biosciences, Woburn, Mass.). Human serum albumin (HSA) at 0.6 mM was prepared by dissolving in phosphate buffered saline (PBS: 4.01 mL 1 M K2HPO4+0.99 mL 1 M KH2PO4+1.37 mL 5 M NaCl+43.63 mL water). After washing and soaking the 24-well BD Gentest Serum Binding System with water, 30% ethanol, and PBS, 750 μL of HSA and 250 μL of PBS were dispensed into each donor and receiver well, respectively. 3.75 μL of 1 mM test compound or wafarin (as control) was spiked into HSA in each donor well. The duplicate incubations were performed at 37° C. for 20 hrs.
After incubation, HSA and buffer samples collected from donor and receiver wells, together with calibration standard samples, were prepared in 96-well plates as shown in Table 2.
The plates were then capped, vortexed, and centrifuged at 3500 rpm for 10 minutes. The supernatant was injected into LC-MS/MS. Sample analysis was performed on an LC/MS/MS system composed of Shimadzu Prominence pumps, SIL-20ACHT autosampler, and Applied Biosystems/MDS Sciex API 3200.

SMILES | fraction unbound at 20 h, 5 μM
CCCCCCC(NC(=O)CCC(=O)Oc1ccc2nc3c(c(CC)c2c1)Cn1c-3cc2c(c1=O)COC(=O)[C@@]2(CC)OC(=O)CCC(=O)NC(CCCCCC)C(=O)O)C(=O)O (stereo partly drawn) [FL-037] | < 0.023
CCc1c2c(nc3ccc(OC(=O)CCC(=O)N[C@@H](CC(C)C)C(=O)O)cc13)-c1cc3c(c(=O)n1C2)COC(=O)[C@@]3(CC)OC(=O)CCC(=O)N[C@@H](CC(C)C)C(=O)O [FL-041] | < 0.022
CCc1c2c(nc3ccc(O)cc13)-c1cc3c(c(=O)n1C2)COC(=O)[C@@]3(CC)OC(=O)CCC(=O)N[C@@H](CC(C)C)C(=O)O [FL-043] | 0.03
CCCCC(NC(=O)CCC(=O)O[C@]1(CC)C(=O)OCc2c1cc1n(c2=O)Cc2c-1nc1ccc(O)cc1c2CC)C(=O)O (stereo partly drawn) [FL-040] | 0.016
CCCCCCCCCCCCCCCCC(NC(=O)CCC(=O)O[C@]1(CC)C(=O)OCc2c1cc1n(c2=O)Cc2c-1nc1ccc(O)cc1c2CC)C(=O)O (stereo partly drawn) [FL-003] | < 0.001
CCCCC(NC(=O)CCC(=O)Oc1ccc2nc3c(c(CC)c2c1)Cn1c-3cc2c(c1=O)COC(=O)[C@@]2(CC)OC(=O)CCC(=O)NC(CCCC)C(=O)O)C(=O)O (stereo partly drawn) [FL-038] | < 0.168
